One compound from US20140249490A1, “Methods for Prevention and/or Treatment of Capsular Contracture” (J&E SOLUTIONS, LLC, priority 2013, published 2014) can be followed below.

The test deals with capsular contracture. As to the kind of experiment: Clinical cases: topical treatment of breast capsular contracture, Baker grading. The test is classed as in vivo, human. To be noted: Patient #1; bilateral Grade 3 capsular contracture, after first revision; given together with massage. The source says: Wash and dry the affected area (that is, the skin surrounding the implant or the skin over the capsular contracture) prior to use. Apply the composition daily (use sparingly) with vigorous massage to affected area. If necessary, exert compression or pressure when massaging to break up existing capsule. Enhanced absorption is obtained with application of the composition following a hot shower. Occlusive dressing (hydrogel), or tight clothing (sports bras), will also enhance the result. Continued daily use will yield optimal results. […] Optimal results are best maintained with daily continued application. One particularly useful embodiment of the invention involves the use of the topical compositions for the treatment/prevention of capsular contracture in breast surgery (e.g., breast implants). There are four grades of breast capsular contracture—Baker grades I through IV. The Baker grading is as follows: Grade 1—the breast is normally soft and looks natural Grade II—the breast is a little firm but looks normal Grade III—the breast is firm and looks abnormal Grade IV—the breast is hard, painful, and looks abnormal. of developed or is at risk of developing capsular contracture a topical composition.

Turning to `COc1ccc2cc([C@H](C)C(=O)O)ccc2c1` [Aleve, naproxen sodium], the “response of capsular contracture to treatment” value was “without result”.
